The assay deals with T1, Aurora-2 (Homo sapiens, UniProt O14965).
T1 sequence (O14965 1-403): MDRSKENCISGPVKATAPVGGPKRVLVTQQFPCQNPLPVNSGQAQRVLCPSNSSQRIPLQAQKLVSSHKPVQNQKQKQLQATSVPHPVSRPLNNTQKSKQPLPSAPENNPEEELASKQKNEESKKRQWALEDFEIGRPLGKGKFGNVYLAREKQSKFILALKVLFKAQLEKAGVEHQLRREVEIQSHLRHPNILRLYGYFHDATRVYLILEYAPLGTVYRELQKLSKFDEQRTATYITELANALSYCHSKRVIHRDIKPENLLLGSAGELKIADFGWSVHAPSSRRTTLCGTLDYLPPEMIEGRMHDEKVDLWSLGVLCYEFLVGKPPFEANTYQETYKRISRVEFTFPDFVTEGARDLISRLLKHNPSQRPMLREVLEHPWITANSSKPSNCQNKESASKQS
Briefly: Inhibition assay of Aurora-2 activity (SPA technology). Type of assay: biochemical. The settings on record: screened according to the methods of the pharmacology section; read-out: IC50values for Aur2 inhibition. As for the experimental part:
The inhibiting activity and the potency of selected compounds is determined through a method of assay based on the use of the SPA technology (Amersham Pharmacia Biotech).
The assay consists of the transfer of radioactivity labelled phosphate moiety by the kinase to a biotinylated substrate. The resulting 33P-labelled biotinylated product is allowed to bind to streptavidin-coated SPA beads (biotin capacity 130 pmol/mg), and light emitted was measured in a scintillation counter.
Kinase reaction: 8 µM biotinylated peptide (4 repeats of LRRWSLG, commercially available from Sigma, catalogue no. L-3523), 10 µM ATP (0.5 uCi P^33γ-ATP), 7.5 ng Aurora 2, inhibitor in a final volume of 30 µl buffer (HEPES 50 mM pH 7.0, MgCl2 10 mM, 1 mM DTT, 0.2 mg/mL BSA, 3 µM orthovanadate) were added to each well of a 96 U bottom well plate. After 60 minutes at room temperature incubation, the reaction was stopped and biotinylated peptide captured by adding 100 µl of bead suspension.
Stratification: 100 µl of CsCl 5 M were added to each well and stood for 4 hours before radioactivity was counted in the Top-Count instrument.
IC50 determination: inhibitors were tested at different concentrations ranging from 0.0015 to 10 µM. Experimental data were analyzed by the computer program GraphPad Prizm using the four parameter logistic equation: y = bottom+(top-bottom)/(1+10^((logIC50-x)*slope)) where x is the logarithm of the inhibitor concentration, y is the response; y starts at bottom and goes to top with a sigmoid shape. Ki calculation: Experimental method: Reaction was carried out in buffer (10 mM Tris, pH 7.5, 10 mM MgCl2, 0.2 mg/mL BSA, 7.5 mM DTT) containing 3.7 nM enzyme, histone and ATP (constant ratio of cold/labeled ATP 1/3000). The reaction was stopped with EDTA and the substrate captured on phosphomembrane (Multiscreen 96 well plates from Millipore). After extensive washing, the multiscreen plates were read on a top counter. Control (time zero) for each ATP and histone concentrations was measured.

These results are taken from patent EP2058315A1, “1H-Furo[3,2-C]Pyrazoles active as aurora kinase inhibitors” (Nerviano Medical Sciences S.r.l., priority 2007, dated 2009).

As to `O=C(Nc1n[nH]c2cc(C(=O)NC3(c4ccccc4)CCCC3)oc12)c1ccco1` [Compound 40, 3-(2-furoylamino)-N-(1-phenylcyclopentyl)-1H-furo[3,2-c]pyrazole-5-carboxamide], the IC50 is less than 10 nM.
The value for `COc1ccc(C(=O)Nc2n[nH]c3cc(C(=O)NC(C)(C)c4ccccc4)oc23)cc1` [Compound 18, 3-[(4-methoxybenzoyl)amino]-N-(1-methyl-1-phenylethyl)-1H-furo[3,2-c]pyrazole-5-carboxamide] was less than 10 nM; that for `CC(C)NCc1ccc(C(=O)Nc2n[nH]c3cc(C(=O)NC(C)(C)c4ccccc4)oc23)cc1` [Compound 70, 3-({4-[(isopropylamino)methyl]benzoyl}amino)-N-(1-methyl-1-phenylethyl)-1H-furo[3,2-c]pyrazole-5-carboxamide] was less than 10 nM; that for `CC(C)(NC(=O)c1cc2[nH]nc(NC(=O)c3cscn3)c2o1)c1ccccc1` [Compound 64, N-(1-methyl-1-phenylethyl)-3-[(1,3-thiazol-4-ylcarbonyl)amino]-1H-furo[3,2-c]pyrazole-5-carboxamide] was less than 10 nM.
In the case of `CN1CCN(c2ccc(C(=O)Nc3n[nH]c4cc(C(=O)NC(C)(C)c5cccc(Cl)c5)oc34)cc2)CC1` [Compound 26, N-[1-(3-chlorophenyl)-1-methylethyl]-3-{[4-(4-methylpiperazin-1-yl)benzoyl]amino}-1H-furo[3,2-c]pyrazole-5-carboxamide] it was less than 10 nM.
Regarding `Cc1occc1C(=O)Nc1n[nH]c2cc(C(=O)NC(C)(C)c3ccccc3)oc12` [Compound 41, 3-[(2-methyl-3-furoyl)amino]-N-(1-methyl-1-phenylethyl)-1H-furo[3,2-c]pyrazole-5-carboxamide], the IC50 is less than 10 nM.
Take `CC(C)(NC(=O)c1cc2[nH]nc(NC(=O)c3ccc(CN4CCCC4)cc3)c2o1)c1ccccc1F` [Compound 73, N-[1-(2-fluorophenyl)-1-methylethyl]-3-{[4-(pyrrolidin-1-ylmethyl)benzoyl]amino}-1H-furo[3,2-c]pyrazole-5-carboxamide]: the IC50 is less than 10 nM.
In the case of `Cc1ccc(C(=O)Nc2n[nH]c3cc(C(=O)NC(C)(C)c4ccccc4)oc23)o1` [Compound 51, 3-[(5-methyl-2-furoyl)amino]-N-(1-methyl-1-phenylethyl)-1H-furo[3,2-c]pyrazole-5-carboxamide] it was less than 10 nM; in that of `CC(C)(NC(=O)c1cc2[nH]nc(NC(=O)c3ccccc3)c2o1)c1ccccc1` [Compound 71, 3-(benzoylamino)-N-(1-methyl-1-phenylethyl)-1H-furo[3,2-c]pyrazole-5-carboxamide], less than 10 nM; in that of `CC(C)(NC(=O)c1cc2[nH]nc(NC(=O)c3ccco3)c2o1)c1ccccc1F` [Compound 39, N-[1-(2-fluorophenyl)-1-methylethyl]-3-(2-furoylamino)-1H-furo[3,2-c]pyrazole-5-carboxamide], less than 10 nM.
The value for `CC(C)(NC(=O)c1cc2[nH]nc(NC(=O)c3ccsc3)c2o1)c1ccccc1` [Compound 63, N-(1-methyl-1-phenylethyl)-3-[(3-thienylcarbonyl)amino]-1H-furo[3,2-c]pyrazole-5-carboxamide] was less than 10 nM; that for `Cc1ccoc1C(=O)Nc1n[nH]c2cc(C(=O)NC(C)(C)c3ccccc3)oc12` [Compound 53, 3-[(3-methyl-2-furoyl)amino]-N-(1-methyl-1-phenylethyl)-1H-furo[3,2-c]pyrazole-5-carboxamide] was less than 10 nM; that for `Cn1nccc1C(=O)Nc1n[nH]c2cc(C(=O)NC(C)(C)c3ccccc3)oc12` [Compound 55, N-(1-methyl-1-phenylethyl)-3-{[(1-methyl-1H-pyrazol-5-yl)carbonyl]amino}-1H-furo[3,2-c]pyrazole-5-carboxamide] was less than 10 nM.
In the case of `CN1CCN(c2ccc(C(=O)Nc3n[nH]c4cc(C(=O)NC(C)(C)c5ccccc5)oc34)cc2)CC1` [Compound 10, N-(1-methyl-1-phenylethyl)-3-{[4-(4-methylpiperazin-1-yl)benzoyl]amino}-1H-furo[3,2-c]pyrazole-5-carboxamide] it was less than 10 nM; in that of `Cc1cc(C(=O)Nc2n[nH]c3cc(C(=O)NC(C)(C)c4ccccc4)oc23)c(C)o1` [Compound 50, 3-[(2,5-dimethyl-3-furoyl)amino]-N-(1-methyl-1-phenylethyl)-1H-furo[3,2-c]pyrazole-5-carboxamide], less than 10 nM.
Turning to `Cc1ccc(C(=O)Nc2n[nH]c3cc(C(=O)NC(C)(C)c4ccccc4)oc23)s1` [Compound 45, N-(1-methyl-1-phenylethyl)-3-{[(5-methyl-2-thienyl)carbonyl]amino}-1H-furo[3,2-c]pyrazole-5-carboxamide], the IC50 is less than 10 nM.
The value for `CC(C)(NC(=O)c1cc2[nH]nc(NC(=O)c3ccc(CN4CCCCC4)cc3)c2o1)c1ccccc1F` [Compound 74, N-[1-(2-fluorophenyl)-1-methylethyl]-3-{[4-(piperidin-1-ylmethyl)benzoyl]amino}-1H-furo[3,2-c]pyrazole-5-carboxamide] was less than 10 nM; that for `CC(C)(NC(=O)c1cc2[nH]nc(NC(=O)c3cccs3)c2o1)c1ccccc1F` [Compound 57, N-[1-(2-fluorophenyl)-1-methylethyl]-3-[(2-thienylcarbonyl)amino]-1H-furo[3,2-c]pyrazole-5-carboxamide] was less than 10 nM.
The value for `CN1CCC(Oc2ccc(C(=O)Nc3n[nH]c4cc(C(=O)NC(C)(C)c5ccccc5)oc34)cc2)CC1` [Compound 30, N-(1-methyl-1-phenylethyl)-3-({4-[(1-methylpiperidin-4-yl)oxy]benzoyl}amino)-1H-furo[3,2-c]pyrazole-5-carboxamide] was less than 10 nM; that for `O=C(Nc1n[nH]c2cc(C(=O)NC3(c4ccccc4)CC3)oc12)c1ccc(N2CCOCC2)cc1` [Compound 7, 3-[(4-morpholin-4-ylbenzoyl)amino]-N-(1-phenylcyclopropyl)-1H-furo[3,2-c]pyrazole-5-carboxamide] was less than 10 nM.
Regarding `Cn1ccc(C(=O)Nc2n[nH]c3cc(C(=O)NC(C)(C)c4ccccc4)oc23)n1` [Compound 56, N-(1-methyl-1-phenylethyl)-3-{[(1-methyl-1H-pyrazol-3-yl)carbonyl]amino}-1H-furo[3,2-c]pyrazole-5-carboxamide], the IC50 is less than 10 nM.
Take `CC(C)(NC(=O)c1cc2[nH]nc(NC(=O)c3ccccc3)c2o1)c1ccccc1F` [Compound 72, 3-(benzoylamino)-N-[1-(2-fluorophenyl)-1-methylethyl]-1H-furo[3,2-c]pyrazole-5-carboxamide]: the IC50 is less than 10 nM.
In the case of `CC(C)(NC(=O)c1cc2[nH]nc(NC(=O)c3ccc(F)cc3)c2o1)c1ccccc1` [Compound 4, 3-[(4-fluorobenzoyl)amino]-N-(1-methyl-1-phenylethyl)-1H-furo[3,2-c]pyrazole-5-carboxamide] it was less than 10 nM; in that of `CN1CCN(Cc2ccc(C(=O)Nc3n[nH]c4cc(C(=O)NC(C)(C)c5ccccc5)oc34)cc2)CC1` [Compound 31, N-(1-methyl-1-phenylethyl)-3-({4-[(4-methylpiperazin-1-yl)methyl]benzoyl}amino)-1H-furo[3,2-c]pyrazole-5-carboxamide], less than 10 nM.
Consider `CC(C)(NC(=O)c1cc2[nH]nc(NC(=O)c3ccc(CN4CCCC4)cc3)c2o1)c1ccccc1` [Compound 34, N-(1-methyl-1-phenylethyl)-3-{[4-(pyrrolidin-1-ylmethyl)benzoyl]amino}-1H-furo[3,2-c]pyrazole-5-carboxamide], for which the IC50 is less than 10 nM.
Consider `CC(C)(NC(=O)c1cc2[nH]nc(NC(=O)c3ccc(OCCN4CCCC4)cc3)c2o1)c1ccccc1` [Compound 68, N-(1-methyl-1-phenylethyl)-3-{[4-(2-pyrrolidin-1-ylethoxy)benzoyl]amino}-1H-furo[3,2-c]pyrazole-5-carboxamide], for which the IC50 is less than 10 nM.
With `CC(C)(NC(=O)c1cc2[nH]nc(NC(=O)c3ccc(CN4CCCCC4)cc3)c2o1)c1ccccc1` [Compound 59, N-(1-methyl-1-phenylethyl)-3-{[4-(piperidin-1-ylmethyl)benzoyl]amino}-1H-furo[3,2-c]pyrazole-5-carboxamide], the IC50 is less than 10 nM.
